“And” between values parts separate entries of the source, which are not always exact repeats. Identical values can stand only once. Where no end group is shown, it is not given here. The star is where a group is joined. Palmitoyl = CCCCCCCCCCCCCCCC(=O)*

Format in all cases: in vivo, mouse
For one test, the system named is C57BL mice. Briefly: G-CSF induced splenomegaly in C57BL and C57BL hemophilic mice. As to conditions: for effect on G-CSF induced splenomegaly: C57BL mice, daily treatment plus G-CSF, versus G-CSF alone; for average spleen weight: G-CSF treated. As for the experimental part:
8 to 10 week old immune competent C57BL mice and C57BL hemophilic (C57BL Hem F8) mice were used for the G-CSF studies.
(§1) 8-10 weeks old NOD-SCID or Factor VIII KO SCID mice were treated by daily subcutaneous injections of recombinant human G-CSF (Neupogen, Amgen) at a dose of 250 μg per kg per day for 7 days. To determine the spleen weight, 7 days after the initiation of G-CSF treatment, mice were euthanized and spleens were harvested.
Enoxaparine (Clexane 20 mg/0.2 ml, Rhone-poulenc, France) was used at a dosage of 200 μg/mouse (dissolved in PBS) and 0.2 ml of the final solution was injected subcutaneously into each mouse once a day.
Dabigatran etexilate (Boehringer Ingelheim Pharma KG, Biberach, Germany) was administrated orally at dosage of 30 mg/kg. Final volume of 0.3 ml dissolved in DDW was administrated daily.
The palmitoylated peptides: pal-RCLSSSAVANRS (PAR1 antagonist, SEQ ID NO: 15) and pal-SGRRYGHALR (PAR4 antagonist, SEQ ID NO: 16) were prepared by solid-phase peptide synthesis using in situ neutralization/HBTU by Hadar Biotec, Israel.
The mice were treated by vehicle control, or with PAR1 antagonist or PAR4 antagonist at 0.5 mg/kg, intraperitonealy on daily basis.

In test [1] the test system is E42 pig liver precursor tissue implanted in Rag-/- mice. Briefly: Embryonic pig liver implant growth in Rag-/- mice, pig albumin serum ELISA. How it is done:
In addition, immune deficient RAG^−/− mice or RAG^−/− FVIII KO mice were used as hosts for the transplantation studies. To obtain RAG^−/− hemophilic mice (designated RAG^−/− FVIII KO mice), FVIII mutation was introduced into RAG^−/− mice, as was previously described. All mice were kept in small cages (up to five animals per cage) and fed sterile food.
Pig embryos were obtained from the Lahav Institute of Animal Research (Kibbutz Lahav, Israel). […] Warm ischemia time was less than 10 minutes and the embryos were transferred to cold PBS. Spleen, pancreas and liver precursors for transplantation were extracted under a light microscope and were kept in sterile conditions at 4° C. in RPMI 1640 (Biological Industries, Beit HaEmek, Israel) prior to transplantation. Cold ischemia time until transplantation was less than 2 hours.
Transplantation of pig precursors was completed as previously described [Dekel, B. et al., Nat Med (2003) 9, 53-60]. Briefly, transplantation of the embryonic precursors was performed under general anesthesia (2.5% 2,2,2-Tribromoethanol, 97% in PBS, 10 ml/kg intraperitoneally). […]
Pig albumin in mouse serum was measured by a standard ELISA procedure using primary goat anti-pig albumin antibody (human, mouse, and bovine absorbed), affinity purified, and secondary pig specific horseradish-peroxidase conjugated antibody (Catalog Nos. A100-210A and A100-210P, Bethyl). […]
For orientation: An ELISA detects its analyte on a solid surface through an enzyme-linked reagent.

In test [2] the test system is NOD-SCID or Factor VIII KO SCID mice. Briefly: G-CSF induced splenomegaly in NOD-SCID and Factor VIII KO SCID mice. As to conditions: for average spleen weight: G-CSF 250 μg per kg per day s.c. for 7 days. How it is done: 8-10 week old immune deficient NOD-SCID or factor VIII KO-SCID mice (Weizmann Institute Animal Breeding Center, Rehovot, Israel) were used for G-CSF studies. To obtain immunodeficient hemophilic mice (designated factor VIII KO-SCID), FVIII-deficient mice were crossed with SCID mice, as was previously described [Aronovich, A. et al., Proc Natl Acad Sci USA (2006) 103: 19075-80].
as §1
Hu Factor VIII was infused into Factor VIII KO SCID mice by osmotic pumps (Azlet pump model 1003D, 1 μl/hr rate, 100 μl total capacity with a continuous delivery for 3 days). Thus, 60 IU Hu factor VIII was dissolved in 100 μl PBS and delivered by the 1003D pump for 3 days. The pump was administrated into the peritoneal cavity. After 3 days, a similar new pump was administrated. Initial concentration of the Hu Factor VIII was calibrated based on Hu Factor VIII half life and its clearance rate [Mordenti, J. et al., Toxicol Appl Pharmacol (1996) 136: 75-81].

Take `CCCCCCOC(=O)NC(=N)c1ccc(NCc2nc3cc(C(=O)N(CCC(=O)OCC)c4ccccn4)ccc3n2C)cc1` [Dabigatran, Dabigatran etexilate]: the “effect on G-CSF induced splenomegaly” value in the test on C57BL mice was “marked enhancement”. In addition, the “embryonic pig liver growth (pig albumin serum levels)” value in test [1] (Rag-/- mice, Dabigatran etexilate 30 mg/kg orally daily) is “enhancement”.

For Enoxaparine [Clexane], in the test with C57BL mice, the “effect on G-CSF induced splenomegaly” value was “marked enhancement”. Further, the “total average weight of the spleens” value in the test on C57BL mice (C57BL/6 mice, following G-CSF induction, Clexane 200 μg/mouse s.c. once a day) stood at 266 ± 91 mg. For the same molecule, the “pig albumin blood levels” value in test [1] (non-hemophilic recipients, days 7 and 21 post transplant, versus control recipients not receiving Clexane) is “marked enhancements”.

For the molecule “pal-RCLSSSAVANRS (Palmitoyl-RCLSSSAVANRS) [PAR1 antagonist, palmitoylated peptide, PAR1 antagonist]”, the “effect on G-CSF induced splenomegaly” value in the test with C57BL mice was “significantly enhanced”.

For the molecule “pal-SGRRYGHALR (Palmitoyl-SGRRYGHALR) [PAR4 antagonist, palmitoylated peptide, PAR4 antagonist]”, in the test with C57BL mice, the “effect on G-CSF induced splenomegaly” value is listed as “significantly enhanced”.

B1: G-CSF: recombinant human G-CSF (Neupogen, Amgen) (protein, chains of the INN, looked up)
chain: MTPLGPASSLPQSFLLKCLEQVRKIQGDGAALQEKLCATYKLCHPEELVLLGHSLGIPWAPLSSCPSQALQLAGCLSQLHSGLFLYQGLLQALEGISPELGPTLDTLQLDVADFATTIWQQMEELGMAPALQPTQGAMPAFASAFQRRAGGVLVASHLQSFLEVSYRVLRHLAQP
In the case of B1, the average spleen weight in the test with C57BL mice (C57BL hemophilic (Hem F8, Factor VIII KO) mice) is 256.03 ± 149.86 mg and 261 ± 154 mg; in the test on C57BL mice (non-hemophilic C57BL mice), 181.22 ± 61.43 mg; in test [2] (Factor VIII KO SCID mice), 314.89 ± 121.51 mg; in test [2] (non-hemophilic NOD-SCID mice), 118.5 ± 25.56 mg. For the same molecule, the “average spleen weight, Factor VIII KO SCID versus non-hemophilic mice” value in test [2] (G-CSF treated mice) is recorded as 2.6 fold.

These data come from US20110236405A1, “COAGULATION FACTOR MODULATION FOR CONTROLLING TRANSPLANT ORGAN SIZE” (Tel HaShomer Medical Research Infrastructure and Services …, priority 2008, published 2011).
